We go through six compounds from article PMC10799935, “Discovery of a peripheral 5HT2A antagonist as a clinical candidate for metabolic dysfunction-associated steatohepatitis” (Nature Communications, 2024).

Series [1] addresses T1, 5HT2A (Homo sapiens, UniProt P28223). Nature of the series: Human 5HT2A inhibition assay (FLIPR calcium 6, 5HT stimulus, stably transfected HEK293 cells). The class given is cell-based. Set-up: expressed in transfected cells; host or cells: HEK293. The following applies: HEK293, 10 μM; read-out: % Inhibition at 10 μM (SD).
Series [2] has as its target T1, 5HT2A. The series is described as above. Format: cell-based. Details: expressed in transfected cells; host or cells: HEK293. The following applies: for inhibition at 1 µM: HEK293, 1 μM, read-out: % Inhibition at 1 μM (SD). The procedure:
The derivatives were evaluated at a concentration of 1 μM for their antagonist activity on the 5HT2A receptor (Tables 1–3)[33],[34]. […] The cells were stained with 100 μL of cytosolic calcium dye using the FLIPR calcium 6 assay solution (Molecular devices, #R8190) supplemented with 2.5 mM probenecid (Sigma; P8761) and incubated for 1 h at 37 °C. After 1 h, the designated amount of the compound was treated in each well and incubated for another 1 h at 37 °C. […] Experimental conditions for the 5HT subtypes can be found in the Supporting Information (Supplementary Table 1).

Series [3] can be described thus: Liver microsomal stability, rat. The class given is in vitro ADME. An excerpt:
(§1) Based on the structure and activity of the two series above, we replaced the alcohol with –CH2.

Series [4] in a line: Liver microsomal stability (species not stated). The class given is in vitro ADME.
Series [5] in a line: Liver microsomal stability, human. Format: in vitro ADME.
Source text: as §1
Background: Liver microsomes are vesicles of endoplasmic reticulum, rich in cytochrome P450 enzymes.

The subject of another series is STZ+HFD mice. Put plainly: STZ+HFD mice (modified STAM) NASH and liver fibrosis model. Format: in vivo, mouse. The following applies: 11c 5 or 10 mg/kg, OCA 10 mg/kg. As for the experimental part:
Mice were intraperitoneally injected with low-dose streptozotocin (40 mg/kg; 5 times) in 7-week-old mice. After injection with STZ, mice were fed an HFD for 16 weeks to induce NASH and liver fibrosis. After 16 weeks of an HFD, mice were fed a standard chow diet to mimic the NASH patient under […]
nine weeks by oral gavage (Reviewer-only data 4). […]
inflammation, hepatocyte ballooning, and total NAFLD activity score by the NASH CRN histological scoring system (Reviewer-only data 4B, C). […]
hepatic fibrosis stage similar to STZ+HFD mice treated with OCA (Reveiwer-only data 4D, E). STZ+HFD mice […]
function (Reviwer-only data 4F). […]
group (Reviewer-only data 4G). Furthermore, the expression of genes related to lipogenesis and fibrosis was reduced in the compound 11c-treated group in a dose-dependent manner (Reviewer-only data 4H, I). These […]
Reviewer-only Data 4. Compound 11c treatment with dietary modification ameliorates NASH and liver fibrosis in a dose-dependent manner. (A) Experimental scheme for in vivo efficacy of compound 11c in […]
(STZ+HFD mice. (B-I) STZ+HFD mice fed HFD for 16 weeks were switched to SCD for 9 weeks and were treated with vehicle, compound 11c, or OCA by daily oral gavage. (B) Representative liver histology by H&E staining […]
mg/kg. Scale bars, 100µm. […]
mice; n = 9 per group. (D) Representative liver histology by Masson’s trichrome staining from vehicle, […]
Scale bars, 100µm. (E) Fibrosis stage
(F) Serum AST and ALT levels; n = 9 per […]
group. (G) Serum TG levels and hepatic TG levels; n = 9 per group. (H) Relative mRNA expression of lipogenesis-related genes as assessed by qRT-PCR in the liver; n = 9 per group. (I) Relative mRNA expression of fibrosis-related genes as assessed by qRT-PCR in the liver; n = 9 per group. Data are expressed as the means ±SEM.
[…], **P<0.01, one-way ANOVA with post hoc Tukey’s test (C, E, F, G, H, I). […]
Representative liver histology by Masson’s trichrome staining and Sirius Red staining. Scale bars, 100µm. (E) […]
one-way ANOVA with post hoc Tukey’s test (C, E).
Comment 2: In "Methods", the author claims to use HEK293 cells (a type of cell derived from kidney embryos) for cell research, however, the data in Table 5 are the results of hepatocyte experiments. What happened? Response: We appreciate the Reviewer’s comment. HEK293 cells were used for inhibition assay (cell research), shown in Table 1-3 of the main manuscript, while, hepatic cell lines were used for chemical profiling and for “Hepatocyte stability” test, shown in Table 5 of the main manuscript. The “Selectivity” of Compound 11c for different 5HT subtypes is elucidated in response to Comment 6.
We have modified the Methods section to provide clarity.

The term inhibition denotes the drop in the measured response relative to a control, in per cent. The IC50 is the concentration at which inhibition is half-maximal. What is called % Inhibition is the drop in the measured response relative to a control, in per cent.

“Also recorded” adds a separate entry of the source.

T1 sequence (P28223 whole entry): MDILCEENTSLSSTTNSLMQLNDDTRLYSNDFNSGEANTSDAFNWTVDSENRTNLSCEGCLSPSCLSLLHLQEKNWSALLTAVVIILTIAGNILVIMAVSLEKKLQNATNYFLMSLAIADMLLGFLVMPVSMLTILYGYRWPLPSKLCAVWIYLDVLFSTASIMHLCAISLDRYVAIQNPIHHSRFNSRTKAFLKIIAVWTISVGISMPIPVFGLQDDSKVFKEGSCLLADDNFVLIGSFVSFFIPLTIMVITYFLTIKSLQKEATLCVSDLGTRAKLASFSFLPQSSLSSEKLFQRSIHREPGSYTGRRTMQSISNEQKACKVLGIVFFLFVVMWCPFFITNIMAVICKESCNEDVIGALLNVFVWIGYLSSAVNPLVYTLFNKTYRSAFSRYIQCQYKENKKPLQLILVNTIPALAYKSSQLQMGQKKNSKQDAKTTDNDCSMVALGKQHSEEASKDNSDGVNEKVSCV

For the compound `CC(C)NC(=S)N1CCC(=C2c3ccc(Cl)cc3CCc3cccnc32)CC1` [Compound 5], at 5HT2A [1], the inhibition at 10 µM amounted to 8%.
For the compound `Cc1nc2n(c(=O)c1CCN1CCC(=C3c4ccc(Cl)cc4CCc4cccnc43)CC1)CCCC2` [Compound 11b], on 5HT2A [2], the IC50 is 14 nM. Further, the inhibition at 1 µM at 5HT2A [2] stood at 92.63 ± 0.6%. The “metabolic stability in the liver microsome (% after 30 min incubation)” value was found to be 11.7% in series [3] and 17.3% in series [5]. Also, the “liver microsomal stability (in words)” value in series [4] is given as “metabolically unstable; also recorded: rapidly metabolized in the liver microsome”.
`CN1CCC(=C2c3ccc(Cl)cc3CCc3cccnc32)CC1` [Compound 6]: at 5HT2A [2], the IC50 was 119 nM and the inhibition at 1 µM turned out to be 90 ± 0.62%. In addition, the inhibition at 10 µM at 5HT2A [1] came to 95 ± 0.31%.
In the case of `CC(=O)N1CCC(=C2c3ccc(Cl)cc3CCc3cccnc32)CC1` [Compound 3], the inhibition at 10 µM on 5HT2A [1] was -1%.
Take `CC[C@H]1[C@@H](O)[C@@H]2[C@H](CC[C@]3(C)[C@@H]([C@H](C)CCC(=O)O)CC[C@@H]23)[C@@]2(C)CC[C@@H](O)C[C@@H]12` [OCA, Obeticholic acid, reference compound]: the hepatic fibrosis stage result in the series with STZ+HFD mice is reported as “improvement”.
With `O=c1[nH]c2ccccc2c(=O)n1CCN1CCC(=C2c3ccc(Cl)cc3CCc3cccnc32)CC1` [Compound 11d], the half-maximal inhibitory concentration (IC50) at 5HT2A [2] was found to be 47 nM. Moreover, at 5HT2A [2], the “IC50 (nM)” value is recorded as “lower in vitro activity than 11c”. Moreover, at 5HT2A [2] (1 μM), the “% Inhibition at 1 μM (SD)” value is recorded as 102 ± 0.03%. In addition, the results for the “metabolic stability in the liver microsome (% after 30 min incubation)” value in series [3] and in series [5] were 0.50% and 5.33%, respectively. The “liver microsomal stability (in words)” value in series [4] is reported as “metabolically unstable; also recorded: low liver microsomal stability”.
